According to US8022091B2, “Triazole derivative” (Taisho Pharmaceutical Co., Ltd., priority 2006, dated 2011):

Target: T1, human Edg-1 (S1P1) (Homo sapiens, UniProt P21453)
T1 construct: expressed in transfected cells; host or cells: HEK-293
Experiment: S1P1 binding assay: inhibition of [33P]-S1P binding to membrane fraction of HEK-293 cells transferred with the human Edg-1 (S1P1) gene
Settings: test compound 10 μM; inhibition of [33P]-S1P binding, membrane fraction
Procedure, shortened: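 With 0.1 nM [33P]-S1P and compound (10^−5M single point, or a concentration range for IC50) in 0.1% DMSO, membrane fractions from human Edg-1-expressing HEK-293 cells were treated for one hour at 30° C in 20 mM Tris-HCl pH 7.4 with NaF, deoxypyridoxine and BSA. Bound label was measured after filtration, with untransfected-cell background subtracted.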

T1 sequence (P21453 whole entry): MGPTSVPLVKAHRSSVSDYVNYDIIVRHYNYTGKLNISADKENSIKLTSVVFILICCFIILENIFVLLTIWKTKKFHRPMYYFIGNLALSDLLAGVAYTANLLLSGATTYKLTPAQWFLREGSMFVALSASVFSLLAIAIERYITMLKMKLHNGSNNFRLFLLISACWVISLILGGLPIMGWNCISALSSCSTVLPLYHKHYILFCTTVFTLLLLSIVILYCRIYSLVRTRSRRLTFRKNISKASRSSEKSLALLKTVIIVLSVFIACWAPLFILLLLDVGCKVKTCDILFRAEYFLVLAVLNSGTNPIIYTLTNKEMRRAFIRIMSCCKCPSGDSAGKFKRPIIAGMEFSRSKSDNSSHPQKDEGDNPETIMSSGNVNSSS

Row | SMILES | inhibition at 10 µM
1 | CCn1c(Oc2cccc(N3CCN(C)CC3)c2)nnc1[C@@H](C)NS(=O)(=O)c1cc(Cl)ccc1OC [Compound 594] | 84%
2 | CCn1c(Oc2cccc(N3CCN(C)CC3)c2)nnc1[C@@H](C)NS(=O)(=O)c1c(C)cc(Cl)cc1Cl [Compound 595] | 93.7%
3 | CCn1c(Oc2cccc(N3CCN(C)CC3)c2)nnc1[C@@H](C)NS(=O)(=O)c1cc(F)c(F)cc1F [Compound 596] | 100%
4 | CCn1c(Oc2cccc(N3CCN(C)CC3)c2)nnc1[C@@H](C)NS(=O)(=O)c1cc(Br)ccc1Br [Compound 597] | 97.3%
5 | CCn1c(Oc2cccc(N3CCN(C)CC3)c2)nnc1[C@@H](C)NS(=O)(=O)c1ccc(-c2ccno2)s1 [Compound 598] | 89.5%
6 | CCn1c(Oc2cccc(N3CCN(C)CC3)c2)nnc1[C@@H](C)NS(=O)(=O)Cc1cccc(Cl)c1 [Compound 599] | 80.6%
7 | CCn1c(Oc2cccc(N3CCN(C)CC3)c2)nnc1[C@@H](C)NS(=O)(=O)c1ccc(Br)cc1Br [Compound 600] | 100%
8 | CCn1c(Oc2cccc(N3CCN(C)CC3)c2)nnc1[C@@H](C)NS(=O)(=O)c1ccc(F)c(C#N)c1 [Compound 601] | 100%
9 | CCn1c(Oc2cccc(N3CCN(C)CC3)c2)nnc1[C@@H](C)NS(=O)(=O)c1cc(C)cc(C)c1 [Compound 602] | 107%
10 | CCn1c(Oc2cccc(N3CCN(C)CC3)c2)nnc1[C@@H](C)NS(=O)(=O)c1ccc(OC(F)F)cc1 [Compound 603] | 107%
11 | CCn1c(Oc2cccc(N3CCN(C)CC3)c2)nnc1[C@@H](C)NS(=O)(=O)c1cccc(OC(F)F)c1 [Compound 604] | 109%
12 | CCn1c(Oc2cccc(N3CCN(C)CC3)c2)nnc1[C@@H](C)NS(=O)(=O)c1c(F)cc(F)cc1Br [Compound 605] | 83.4%
13 | CCn1c(Oc2cccc(N3CCN(C)CC3)c2)nnc1[C@@H](C)NS(=O)(=O)c1cc(F)cc(F)c1 [Compound 606] | 108%
14 | CCn1c(Oc2cccc(N3CCN(C)CC3)c2)nnc1[C@@H](C)NS(=O)(=O)c1cc(F)c(F)c(F)c1 [Compound 608] | 109%
15 | CCn1c(Oc2cccc(N3CCN(C)CC3)c2)nnc1[C@@H](C)NS(=O)(=O)c1ccc(F)cc1Br [Compound 609] | 93.1%
16 | CCn1c(Oc2cccc(N3CCN(C)CC3)c2)nnc1[C@@H](C)NS(=O)(=O)c1ccc(C(F)(F)F)cc1Br [Compound 610] | 91.2%
17 | CCn1c(Oc2cccc(N3CCN(C)CC3)c2)nnc1[C@@H](C)NS(=O)(=O)c1cc(C(F)(F)F)ccc1Br [Compound 611] | 63.9%
18 | CCn1c(Oc2cccc(N3CCN(C)CC3)c2)nnc1[C@@H](C)NS(=O)(=O)c1ccc(C)c(F)c1 [Compound 612] | 114%
19 | CCn1c(Oc2cccc(N3CCN(C)CC3)c2)nnc1[C@@H](C)NS(=O)(=O)c1ccc(F)cc1C [Compound 613] | 90.9%
20 | CCn1c(Oc2cccc(N3CCN(C)CC3)c2)nnc1[C@@H](C)NS(=O)(=O)c1cc(Cl)ccc1F [Compound 614] | 77.8%
21 | CCn1c(Oc2cccc(N3CCN(C)CC3)c2)nnc1[C@@H](C)NS(=O)(=O)c1ccc(Br)c(F)c1 [Compound 615] | 110%
22 | CCn1c(Oc2cccc(N3CCN(C)CC3)c2)nnc1[C@@H](C)NS(=O)(=O)c1ccc(Br)cc1Cl [Compound 616] | 99.9%
23 | CCn1c(Oc2cccc(N3CCN(C)CC3)c2)nnc1[C@@H](C)NS(=O)(=O)c1c(Cl)cc(Br)cc1Cl [Compound 617] | 77.5%
24 | CCn1c(Oc2cccc(N3CCN(C)CC3)c2)nnc1[C@@H](C)NS(=O)(=O)CCCOc1ccc(OC)cc1 [Compound 618] | 65.4%
25 | CCn1c(Oc2cccc(N3CCN(C)CC3)c2)nnc1[C@@H](C)NS(=O)(=O)c1ccc(C)c(C)c1 [Compound 619] | 114%
26 | CCn1c(Oc2cccc(N3CCN(C)CC3)c2)nnc1[C@@H](C)NS(=O)(=O)c1cc(C)ccc1F [Compound 620] | 88.4%
